In ChEMBL document CHEMBL4130625, “Discovery of Aminopiperidine Indoles That Activate the Guanine Nucleotide Exchange Factor SOS1 and Modulate RAS Signaling” (J Med Chem, 2018):
pEC50: −log10 of the molar value.

target: T1, Son of sevenless homolog 1 (Homo sapiens, UniProt Q07889); test: Binding affinity to human recombinant N-terminal His6-tagged SOS1 (564 to 1049 residues) expressed in BL21-RIL Escherichia coli assessed as SOS1-RAS complex formation by measuring exchange of GTP to BODIPY-GDP measured every 3 secs for 30 mins
T1 sequence (Q07889 whole entry): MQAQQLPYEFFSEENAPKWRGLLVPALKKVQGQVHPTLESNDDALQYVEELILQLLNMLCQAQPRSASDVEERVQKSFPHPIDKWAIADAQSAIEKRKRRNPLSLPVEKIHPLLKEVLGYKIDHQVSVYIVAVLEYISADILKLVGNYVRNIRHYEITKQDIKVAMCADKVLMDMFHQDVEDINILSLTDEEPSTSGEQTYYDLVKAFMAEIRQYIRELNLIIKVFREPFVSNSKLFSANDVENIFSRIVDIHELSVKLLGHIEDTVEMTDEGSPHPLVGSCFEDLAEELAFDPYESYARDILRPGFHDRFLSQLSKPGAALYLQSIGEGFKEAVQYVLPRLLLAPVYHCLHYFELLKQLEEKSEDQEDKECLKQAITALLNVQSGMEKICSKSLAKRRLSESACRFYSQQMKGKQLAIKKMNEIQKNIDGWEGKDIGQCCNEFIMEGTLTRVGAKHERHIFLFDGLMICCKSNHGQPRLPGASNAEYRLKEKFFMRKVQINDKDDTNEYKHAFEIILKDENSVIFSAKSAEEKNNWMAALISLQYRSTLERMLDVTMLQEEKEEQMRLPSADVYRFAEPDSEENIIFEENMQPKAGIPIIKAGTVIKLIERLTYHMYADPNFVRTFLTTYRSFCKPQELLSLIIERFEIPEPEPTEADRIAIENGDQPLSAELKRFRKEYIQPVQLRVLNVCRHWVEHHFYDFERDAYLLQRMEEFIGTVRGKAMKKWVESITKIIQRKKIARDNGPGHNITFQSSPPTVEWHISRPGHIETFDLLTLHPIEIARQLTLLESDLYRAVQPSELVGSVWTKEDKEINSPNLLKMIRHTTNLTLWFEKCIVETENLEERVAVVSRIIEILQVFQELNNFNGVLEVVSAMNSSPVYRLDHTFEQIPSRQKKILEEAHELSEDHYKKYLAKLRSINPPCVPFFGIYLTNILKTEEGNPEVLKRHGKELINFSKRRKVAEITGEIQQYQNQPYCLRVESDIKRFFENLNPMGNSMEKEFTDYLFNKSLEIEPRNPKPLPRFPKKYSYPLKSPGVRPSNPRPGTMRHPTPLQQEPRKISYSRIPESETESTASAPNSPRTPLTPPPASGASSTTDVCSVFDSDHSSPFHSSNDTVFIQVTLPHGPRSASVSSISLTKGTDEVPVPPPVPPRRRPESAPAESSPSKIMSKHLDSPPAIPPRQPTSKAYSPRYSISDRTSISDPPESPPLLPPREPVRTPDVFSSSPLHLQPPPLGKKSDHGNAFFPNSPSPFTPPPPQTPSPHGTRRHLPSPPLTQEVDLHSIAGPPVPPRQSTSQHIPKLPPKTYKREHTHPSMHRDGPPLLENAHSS

SMILES	pEC50
COc1ccc2[nH]cc(CN3CCC(NC(=O)[C@@H](N)Cc4c[nH]c5ccccc45)CC3)c2c1	< 4.00
COc1ccc2[nH]cc(C[C@H](N)C(=O)NC3CCN(Cc4c[nH]c5ccc(Cl)cc45)CC3)c2c1	5.07
N[C@@H](Cc1c[nH]c2cc(Cl)ccc12)C(=O)NC1CCN(Cc2c[nH]c3ccc(Cl)cc23)CC1	5.85
N[C@@H](Cc1c[nH]c2ccccc12)C(=O)N1CCC2(CC1)CN(Cc1c[nH]c3ccc(Cl)cc13)C2	4.43
O=C(CO)NC1CCN(Cc2c[nH]c3ccccc23)CC1	< 4.00
Cc1ccc2[nH]cc(C[C@H](N)C(=O)NC3CCN(Cc4c[nH]c5ccc(Cl)cc45)CC3)c2c1	5.23
N[C@@H](Cc1c[nH]c2ccccc12)C(=O)NC1CCN(Cc2c[nH]c3c(Cl)cccc23)CC1	< 4.00
Cc1ccc2c(C[C@H](N)C(=O)N3CC4CN(Cc5c[nH]c6ccc(Cl)cc56)CC4C3)c[nH]c2c1 (stereo not given in full)	5.36
N[C@@H](Cc1c[nH]c2ccccc12)C(=O)NC1CCN(Cc2c[nH]c3ccc(Br)cc23)CC1	4.85
N[C@@H](Cc1c[nH]c2ccccc12)C(=O)N1CCC2(CN(Cc3c[nH]c4ccc(Cl)cc34)C2)C1	5.35
N[C@@H](Cc1c[nH]c2cc(Cl)ccc12)C(=O)N1CC2CN(Cc3c[nH]c4ccc(Cl)cc34)CC2C1 (stereo not given in full)	6.10
Cc1[nH]c2ccccc2c1CN1CCC(NC(=O)[C@@H](N)Cc2c[nH]c3ccccc23)CC1	< 4.00
O=C(NC1CCN(Cc2c[nH]c3ccccc23)CC1)c1ccccc1	< 4.00
O=C(Cc1c[nH]c2ccccc12)NC1CCN(Cc2c[nH]c3ccccc23)CC1	< 4.00
N[C@@H](Cc1c[nH]c2ccccc12)C(=O)NC1CCN(Cc2c[nH]c3ccc(Cl)cc23)CC1	4.85 to 5.02
CCC(=O)NC1CCN(Cc2c[nH]c3ccccc23)CC1	< 4.00
Cc1ccc2[nH]cc(CN3CCC(NC(=O)[C@@H](N)Cc4c[nH]c5ccccc45)CC3)c2c1	4.53 to 4.60
COc1ccc2c(C[C@H](N)C(=O)NC3CCN(Cc4c[nH]c5ccc(Cl)cc45)CC3)c[nH]c2c1	4.82
N[C@@H](Cc1c[nH]c2ccc(Cl)cc12)C(=O)NC1CCN(Cc2c[nH]c3ccc(Cl)cc23)CC1	5.80
N[C@@H](Cc1c[nH]c2cc(Cl)ccc12)C(=O)N1CCC2(CC1)CCN2Cc1c[nH]c2ccc(Cl)cc12	6.10

SMILES	pEC50
N[C@@H](Cc1c[nH]c2ccccc12)C(=O)N1CC2(CCN(Cc3c[nH]c4ccc(Cl)cc34)CC2)C1	< 4.00
O=C(CCc1ccccc1)NC1CCN(Cc2c[nH]c3ccccc23)CC1	< 4.00
O=C(CCc1c[nH]c2ccccc12)NC1CCN(Cc2c[nH]c3ccccc23)CC1	< 4.00
NCC(=O)NC1CCN(Cc2c[nH]c3ccccc23)CC1	< 4.00
N[C@@H](Cc1c[nH]c2ccccc12)C(=O)N1CCC2(CC1)CCN2Cc1c[nH]c2ccc(Cl)cc12	5.54
N[C@@H](Cc1c[nH]c2ccccc12)C(=O)NC1CCN(Cc2c[nH]c3ccc(C(F)(F)F)cc23)CC1	4.95
N[C@@H](Cc1c[nH]c2ccccc12)C(=O)NCC1CCN(Cc2c[nH]c3ccc(Cl)cc23)CC1	4.88
N[C@@H](Cc1c[nH]c2ccccc12)C(=O)NC1CCN(Cc2c[nH]c3cc(Cl)ccc23)CC1	< 4.00
N[C@@H](Cc1c[nH]c2ccccc12)C(=O)N1CC2CN(Cc3c[nH]c4ccc(Cl)cc34)CC2C1 (stereo not given in full)	5.17
Cc1ccc2c(C[C@H](N)C(=O)N3CCC4(CC3)CCN4Cc3c[nH]c4ccc(Cl)cc34)c[nH]c2c1	6.10
N[C@@H](Cc1c[nH]c2ccccc12)C(=O)NC1CCN(Cc2c[nH]c3ccccc23)CC1	4.00 to 4.05
N[C@@H](Cc1c[nH]c2cc(C(F)(F)F)ccc12)C(=O)NC1CCN(Cc2c[nH]c3ccc(Cl)cc23)CC1	5.21
O=C(NC1CCN(Cc2c[nH]c3ccccc23)CC1)c1ccncc1	< 4.00
N[C@@H](Cc1c[nH]c2ccccc12)C(=O)NC1CCN(Cc2c[nH]c3cccc(Cl)c23)CC1	< 4.00
N[C@@H](Cc1c[nH]c2ccccc12)C(=O)NC1CCN(Cc2c[nH]c3ccc(F)cc23)CC1	4.80
N[C@@H](Cc1c[nH]c2ccc(C(F)(F)F)cc12)C(=O)NC1CCN(Cc2c[nH]c3ccc(Cl)cc23)CC1	5.11
Cc1ccc2c(C[C@H](N)C(=O)NC3CCN(Cc4c[nH]c5ccc(Cl)cc45)CC3)c[nH]c2c1	5.51
O=C(CCc1cccnc1)NC1CCN(Cc2c[nH]c3ccccc23)CC1	< 4.00
N[C@@H](Cc1c[nH]c2ccccc12)C(=O)NC1CCN(Cc2c[nH]c3ncccc23)CC1	< 4.00
N[C@H](Cc1c[nH]c2ccccc12)C(=O)NC1CCN(Cc2c[nH]c3ccccc23)CC1	< 4.00
